Results reported in patent US5856309A, “Amidinopyrroline derivatives, processes for their production and pharmaceutical agents containing these compounds” (Boehringer Mannheim GmbH, priority 1997, dated 1999).

Legend:
[1] = target: isolated activated GpIIb/IIIa receptor (Homo sapiens, UniProt P05106+P08514); assay: GpIIb/IIIa fibrinogen Elisa; details: inhibition of fibrinogen binding to coated GpIIb/IIIa receptor, optical density at 405 nm
Experimental: The GpIIb/IIIa fibrinogen Elisa is a modification of assays which are described in the following literature: Nachman, R. L. & Leung, L. L. K. (1982): J. Clin. Invest. 69: 263-269 and Wright, P. S. et al. (1993): Biochem. J. 293:263-267.
Microtiter plates were coated overnight with 2 μg/ml isolated activated GpIIb/IIIa receptor. After unbound receptor had been removed by washing several times the surface of the plates is blocked with 1% casein and it is washed again. The test substance is added at the required concentrations and the plates are incubated for 10 minutes while shaking. The natural ligand of the gpIIb/IIIa receptor, fibrinogen, is added. After incubating for 1 hour unbound fibrinogen is removed by washing several times and the bound fibrinogen is determined by means of a peroxidase-conjugated, anti-fibrinogen monoclonal antibody by measuring the optical density at 405 nm in an ELISA instrument. The inhibition of a fibrinogen-GpIIb/IIIa interaction results in a low optical density. The IC50 value was determined by a concentration/effect curve.

[2] = tested on: horse thrombin; assay: Thrombin time in citrate plasma (sphere coagulometer); type: biochemical; details: citrate plasma of healthy donors, 37° C., control ca. 24 seconds
Experimental: A common test in clinical coagulation diagnostics is the thrombin time. This parameter detects the action of thrombin on fibrinogen and the formation of blood clots. Inhibitors of thrombin result in an increased thrombin time.
In order to obtain plasma 9 parts fresh blood from healthy donors are mixed with one part sodium citrate solution (0.11 mol/l) and centrifuged at ca. 3000 rpm for 10 min at room temperature. The plasma was removed by pipette and can be stored for ca. 8 h at room temperature.
200 ul citrate plasma was incubated for 2 min at 37° C. in a sphere coagulometer (KC10 from the Amelung Company). 10 ul dimethylsulfoxide (DMSO) or a solution of the active substance in DMSO was added to 190 ul preheated thrombin reagent (Boehringer Mannheim, GmbH; contains ca. 3 U/ml horse thrombin and 0.0125M Ca2+). A stopwatch was started when this 200 ul solution was added to the plasma and the time point at which coagulation starts was determined. […] [* the experiment was stopped after 5 minutes.]

[3] = target: T1, bovine pancreatic trypsin (Bos taurus, UniProt P00760); assay: Inhibition of trypsin, kinetic measurement as described for thrombin; type: biochemical; details: measured as described for thrombin, read-out: inhibition constant Ki (trypsin)
T1 construct: purchased Sigma
T1 sequence (P00760 24-246): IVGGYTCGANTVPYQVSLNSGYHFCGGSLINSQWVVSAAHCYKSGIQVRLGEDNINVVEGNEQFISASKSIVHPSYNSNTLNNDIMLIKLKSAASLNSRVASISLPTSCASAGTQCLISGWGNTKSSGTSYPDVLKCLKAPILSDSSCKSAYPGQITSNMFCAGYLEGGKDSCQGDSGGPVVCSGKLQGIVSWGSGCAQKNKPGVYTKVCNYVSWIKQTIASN
Experimental: The kinetic measurements were carried out in 0.1M phosphate buffer which contained 0.2M sodium chloride and 0.5% polyethylene glycol 6000 at a pH=7.5 and 25° C. using the substrate H-(D)-Phe-Pro-Arg-pNA (S-2238 Kabi) and human thrombin (Sigma, specific activity=2150 NIH units/mg) in polystyrene semimicro-cuvettes in a total volume of 1 ml.
For this the reaction was started first by adding 0.03 NIH units thrombin to a 100 μM solution of the substrate and the active substance. In a second experiment substrate was added to a solution of thrombin and the active substance which had been incubated for 5 min. The increase of the concentration of p-nitro-anilide with time was monitored spectrophotometrically for 12 min at 405 nm (UV-VIS spectrophotometer Lambda-2 from the Perkin-Elmer Company). […] The inhibition constant Ki was determined as follows. […] The increase in absorbance at 405 nm caused by the formation of p-nitroanilide was monitored for a time period of 12 min. Measurement points (time versus absorbance) were transferred to a PC at intervals of 20 sec. The rates Vo (changes in absorbance per see; measurements without inhibitor) and Vi (measurements with inhibitor) were determined from the data by linear regression. […] From one measurement series (constant inhibitor concentration, variable substrate concentrations) Km' and Vmax were determined by a non-linear fit to the equation [formula] […]

Sequence of isolated activated GpIIb/IIIa receptor (P08514 32-887 limits assumed): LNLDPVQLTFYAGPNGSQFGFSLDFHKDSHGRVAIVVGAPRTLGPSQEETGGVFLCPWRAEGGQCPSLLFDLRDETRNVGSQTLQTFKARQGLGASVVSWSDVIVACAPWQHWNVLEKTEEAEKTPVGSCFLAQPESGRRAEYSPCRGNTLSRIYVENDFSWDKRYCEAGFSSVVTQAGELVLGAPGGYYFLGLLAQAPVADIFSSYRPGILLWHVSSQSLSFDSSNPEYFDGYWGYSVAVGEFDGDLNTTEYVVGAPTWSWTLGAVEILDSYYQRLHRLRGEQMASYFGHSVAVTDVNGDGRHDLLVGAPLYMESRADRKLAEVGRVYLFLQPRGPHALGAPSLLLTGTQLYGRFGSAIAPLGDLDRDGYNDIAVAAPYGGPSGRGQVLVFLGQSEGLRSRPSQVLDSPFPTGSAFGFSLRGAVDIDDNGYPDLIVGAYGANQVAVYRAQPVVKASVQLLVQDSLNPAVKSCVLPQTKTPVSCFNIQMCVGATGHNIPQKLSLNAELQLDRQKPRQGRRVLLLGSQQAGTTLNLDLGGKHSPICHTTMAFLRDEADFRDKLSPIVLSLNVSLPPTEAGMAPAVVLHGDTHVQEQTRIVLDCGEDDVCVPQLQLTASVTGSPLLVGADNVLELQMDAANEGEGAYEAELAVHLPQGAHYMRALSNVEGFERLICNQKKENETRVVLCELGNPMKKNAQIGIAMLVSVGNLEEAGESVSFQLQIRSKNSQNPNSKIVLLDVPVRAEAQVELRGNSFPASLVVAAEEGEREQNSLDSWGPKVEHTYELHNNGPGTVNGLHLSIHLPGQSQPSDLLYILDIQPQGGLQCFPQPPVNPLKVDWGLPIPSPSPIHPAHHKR
Sequence of isolated activated GpIIb/IIIa receptor (P08514 891-1039 partner limits assumed): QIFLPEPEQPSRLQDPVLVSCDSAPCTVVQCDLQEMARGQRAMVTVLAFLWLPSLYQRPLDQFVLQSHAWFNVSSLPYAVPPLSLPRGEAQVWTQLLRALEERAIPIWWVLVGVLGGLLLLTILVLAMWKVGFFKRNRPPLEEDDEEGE
Sequence of isolated activated GpIIb/IIIa receptor (P05106 27-788): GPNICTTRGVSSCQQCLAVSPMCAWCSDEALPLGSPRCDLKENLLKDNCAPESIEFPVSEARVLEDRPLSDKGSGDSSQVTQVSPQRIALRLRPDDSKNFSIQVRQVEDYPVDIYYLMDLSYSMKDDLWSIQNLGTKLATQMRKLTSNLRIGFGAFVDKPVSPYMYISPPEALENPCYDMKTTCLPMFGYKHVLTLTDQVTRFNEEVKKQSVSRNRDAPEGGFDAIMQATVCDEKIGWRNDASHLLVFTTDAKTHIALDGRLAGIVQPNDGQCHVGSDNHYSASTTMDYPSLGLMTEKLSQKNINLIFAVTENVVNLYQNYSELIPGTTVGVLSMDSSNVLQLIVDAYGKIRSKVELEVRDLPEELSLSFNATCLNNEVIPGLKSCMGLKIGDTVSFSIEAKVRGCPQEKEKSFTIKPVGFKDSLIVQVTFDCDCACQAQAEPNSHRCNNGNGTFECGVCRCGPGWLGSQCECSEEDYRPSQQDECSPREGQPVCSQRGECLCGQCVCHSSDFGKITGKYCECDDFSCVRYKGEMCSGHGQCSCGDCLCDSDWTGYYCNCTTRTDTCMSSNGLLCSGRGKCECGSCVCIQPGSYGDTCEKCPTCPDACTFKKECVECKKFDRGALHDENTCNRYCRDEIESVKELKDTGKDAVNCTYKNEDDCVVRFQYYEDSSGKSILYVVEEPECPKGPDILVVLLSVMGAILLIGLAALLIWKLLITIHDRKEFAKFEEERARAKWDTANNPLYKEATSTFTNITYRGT

Compound | IC50 [1] | further results
N=C(N)N1CC=C(CC(NC(=O)OCC(Cl)(Cl)Cl)C(=O)NCC(=O)N[C@@H](CC(=O)O)C(=O)N[C@@H](Cc2ccccc2)C(=O)O)C1 (stereo partly drawn) [Example 9, Troc-Ada-Gly-Asp-Phe] | 2.3 µM | –
N=C(N)N1CC=C(CC(NC(=O)OCC(Cl)(Cl)Cl)C(=O)NCC(=O)N[C@@H](CC(=O)O)C(=O)N[C@@H](CO)C(=O)O)C1 (stereo partly drawn) [Example 7, Troc-Ada-Gly-Asp-Ser] | 14.4 µM | –
N=C(N)N1CC=C(CC(NC(=O)OCC(Cl)(Cl)Cl)C(=O)NCC(=O)N[C@@H](CC(=O)O)C(=O)N[C@@H](Cc2c[nH]c3ccccc23)C(=O)O)C1 (stereo partly drawn) [Example 8, Troc-Ada-Gly-Asp-Trp] | 0.4 µM | –
D-Pla-D-Phe-L-Choi-Adc [Example 1] | – | increase of thrombin time ([2]; test concentration 3.5 nM): 5 s; increase of thrombin time ([2]; test concentration 34 nM): 65 s; increase of thrombin time ([2]; test concentration 340 nM, experiment stopped after 5 minutes): > 300 s; Ki [3]: 0.1 µM
N=C(N)N1CC=C(CC(N)C(=O)NCC(=O)N[C@@H](CC(=O)O)C(=O)N[C@@H](Cc2ccc(O)cc2)C(=O)O)C1 (stereo partly drawn) [Example 10, Ada-Gly-Asp-Tyr] | 2.4 µM | –
